Laboratory results as given in the supplement of paper PMC13207355.

Columns and labels:
Details in all cases: exposure time: 72 h
[1] = tested on: E13 (patient-derived glioblastoma stem cells of classical subtype); experiment: surviving fraction (nuclei count normalised to DMSO); higher = more cells surviving (less toxic)
[2] = tested on: E21 (patient-derived glioblastoma stem cells of mesenchymal subtype); experiment: as above
[3] = tested on: E28 (patient-derived glioblastoma stem cells of classical subtype); experiment: as above
[4] = tested on: E31 (patient-derived glioblastoma stem cells of proneural subtype); experiment: as above
[5] = tested on: E34 (patient-derived glioblastoma stem cells of proneural subtype); experiment: as above
[6] = tested on: E57 (patient-derived glioblastoma stem cells of mesenchymal subtype); experiment: as above
[7] = tested on: FT3469 (normal neural stem cell line); experiment: as above
[8] = tested on: E13; experiment: phenotypic distance (Euclidean, principal components) from DMSO controls (arbitrary units); higher = stronger morphological change
[9] = tested on: E21; experiment: as above
[10] = tested on: E28; experiment: as above
[11] = tested on: E31; experiment: as above
[12] = tested on: E34; experiment: as above
[13] = tested on: E57; experiment: as above
[14] = tested on: FT3469; experiment: as above
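For phenotypic distance (Euclidean, principal components) from DMSO controls in this document: cell Painting imaging in 384-well plates, CellProfiler features reduced to at least 20 principal components, Euclidean distance versus same-plate DMSO vehicle wells (0.1% v/v), median over six images per well.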
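For surviving fraction (nuclei count normalised to DMSO) in this document: nuclei counted by high-content imaging of Hoechst-stained cells in laminin-coated 384-well plates, relative to 0.1% DMSO vehicle wells, with staurosporine as cell-death control.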

## COc1cc2c(cc1-c1c(C)noc1C)ncc1[nH]c(=O)n([C@H](C)c3ccccn3)c12
[1]; 4.1 nM
  surviving fraction: 0.96
[1]; 12.3 nM
  surviving fraction: 0.821
[1]; 37 nM
  surviving fraction: 0.885
[1]; 111.1 nM
  surviving fraction: 0.757
[1]; 333.3 nM
  surviving fraction: 0.79
[1]; 1000 nM
  surviving fraction: 0.562
[1]; 3000 nM
  surviving fraction: 0.473
[2]; 4.1 nM
  surviving fraction: 0.942
[2]; 12.3 nM
  surviving fraction: 1.05
[2]; 37 nM
  surviving fraction: 0.96
[2]; 111.1 nM
  surviving fraction: 0.873
[2]; 333.3 nM
  surviving fraction: 0.78
[2]; 1000 nM
  surviving fraction: 0.567
[2]; 3000 nM
  surviving fraction: 0.391
[3]; 4.1 nM
  surviving fraction: 1.05
[3]; 12.3 nM
  surviving fraction: 0.934
[3]; 37 nM
  surviving fraction: 1.14
[3]; 111.1 nM
  surviving fraction: 0.933
[3]; 333.3 nM
  surviving fraction: 0.976
[3]; 1000 nM
  surviving fraction: 0.652
[3]; 3000 nM
  surviving fraction: 0.782
[4]; 4.1 nM
  surviving fraction: 1.12
[4]; 12.3 nM
  surviving fraction: 0.852
[4]; 37 nM
  surviving fraction: 1.18
[4]; 111.1 nM
  surviving fraction: 0.997
[4]; 333.3 nM
  surviving fraction: 1.22
[4]; 1000 nM
  surviving fraction: 0.817
[4]; 3000 nM
  surviving fraction: 0.628
[5]; 4.1 nM
  surviving fraction: 0.897
[5]; 12.3 nM
  surviving fraction: 1.11
[5]; 37 nM
  surviving fraction: 0.994
[5]; 111.1 nM
  surviving fraction: 0.972
[5]; 333.3 nM
  surviving fraction: 1.03
[5]; 1000 nM
  surviving fraction: 0.882
[5]; 3000 nM
  surviving fraction: 0.683
[6]; 4.1 nM
  surviving fraction: 1.04
[6]; 12.3 nM
  surviving fraction: 0.964
[6]; 37 nM
  surviving fraction: 1.14
[6]; 111.1 nM
  surviving fraction: 1.08
[6]; 333.3 nM
  surviving fraction: 0.915
[6]; 1000 nM
  surviving fraction: 0.653
[6]; 3000 nM
  surviving fraction: 0.533
[7]; 4.1 nM
  surviving fraction: 0.954
[7]; 12.3 nM
  surviving fraction: 0.984
[7]; 37 nM
  surviving fraction: 0.981
[7]; 111.1 nM
  surviving fraction: 0.987
[7]; 333.3 nM
  surviving fraction: 0.837
[7]; 1000 nM
  surviving fraction: 0.73
[7]; 3000 nM
  surviving fraction: 0.654
[8]; 4.1 nM
  phenotypic distance: 0.723
[8]; 12.3 nM
  phenotypic distance: 0.923
[8]; 37 nM
  phenotypic distance: 3.5
[8]; 111.1 nM
  phenotypic distance: 1.73
[8]; 333.3 nM
  phenotypic distance: 2.84
[8]; 1000 nM
  phenotypic distance: 3.74
[8]; 3000 nM
  phenotypic distance: 3.72
[9]; 4.1 nM
  phenotypic distance: 0.956
[9]; 12.3 nM
  phenotypic distance: 0.64
[9]; 37 nM
  phenotypic distance: 0.943
[9]; 111.1 nM
  phenotypic distance: 1.42
[9]; 333.3 nM
  phenotypic distance: 2.79
[9]; 1000 nM
  phenotypic distance: 4.44
[9]; 3000 nM
  phenotypic distance: 6.05
[10]; 4.1 nM
  phenotypic distance: 0.949
[10]; 12.3 nM
  phenotypic distance: 0.901
[10]; 37 nM
  phenotypic distance: 0.621
[10]; 111.1 nM
  phenotypic distance: 1.03
[10]; 333.3 nM
  phenotypic distance: 1.35
[10]; 1000 nM
  phenotypic distance: 1.72
[10]; 3000 nM
  phenotypic distance: 1.77
[11]; 4.1 nM
  phenotypic distance: 0.332
[11]; 12.3 nM
  phenotypic distance: 0.436
[11]; 37 nM
  phenotypic distance: 0.51
[11]; 111.1 nM
  phenotypic distance: 0.757
[11]; 333.3 nM
  phenotypic distance: 0.725
[11]; 1000 nM
  phenotypic distance: 1.98
[11]; 3000 nM
  phenotypic distance: 2.07
[12]; 4.1 nM
  phenotypic distance: 1.02
[12]; 12.3 nM
  phenotypic distance: 0.609
[12]; 37 nM
  phenotypic distance: 0.687
[12]; 111.1 nM
  phenotypic distance: 1.15
[12]; 333.3 nM
  phenotypic distance: 1.46
[12]; 1000 nM
  phenotypic distance: 1.79
[12]; 3000 nM
  phenotypic distance: 2.96
[13]; 4.1 nM
  phenotypic distance: 4.06
[13]; 12.3 nM
  phenotypic distance: 7.45
[13]; 37 nM
  phenotypic distance: 0.734
[13]; 111.1 nM
  phenotypic distance: 1.05
[13]; 333.3 nM
  phenotypic distance: 1.91
[13]; 1000 nM
  phenotypic distance: 3.16
[13]; 3000 nM
  phenotypic distance: 3.48
[14]; 4.1 nM
  phenotypic distance: 1.21
[14]; 12.3 nM
  phenotypic distance: 1.17
[14]; 37 nM
  phenotypic distance: 1.25
[14]; 111.1 nM
  phenotypic distance: 1.2
[14]; 333.3 nM
  phenotypic distance: 1.04
[14]; 1000 nM
  phenotypic distance: 1.53
[14]; 3000 nM
  phenotypic distance: 3.06

## Cc1cc(CN)cc(C)c1NC(=O)c1ccc(-c2cc(Cl)ccc2Cl)o1
[1]; 3000 nM
  surviving fraction: 0.865
[2]; 3000 nM
  surviving fraction: 0.862
[3]; 3000 nM
  surviving fraction: 0.919
[4]; 3000 nM
  surviving fraction: 0.856
[5]; 3000 nM
  surviving fraction: 0.829
[6]; 3000 nM
  surviving fraction: 0.964
[7]; 3000 nM
  surviving fraction: 0.883
[8]; 3000 nM
  phenotypic distance: 1.34
[9]; 3000 nM
  phenotypic distance: 0.968
[10]; 3000 nM
  phenotypic distance: 0.815
[11]; 3000 nM
  phenotypic distance: 1.86
[12]; 3000 nM
  phenotypic distance: 0.825
[13]; 3000 nM
  phenotypic distance: 1.29
[14]; 3000 nM
  phenotypic distance: 0.784
